The values that follow come from PubChem BioAssay AID1053192 (Broad Institute, 2014).

Test [1] in a line: HepG2 cell cytotoxicity, dose response, cytotoxicity control, CellTiter-Glo luminescence, 72 h, dry powder (AID 1053192). The note with it: HepG2 viability, CellTiter-Glo ATP luminescence, 72 h; at 50 µM (top of the series). For orientation: ATP-based viability assays read luminescence as a measure of living cells.
The subject of test [2] is HepG2 viability, CellTiter-Glo ATP luminescence, 72 h. Described as above.

Results filed as inconclusive are left out. Activity calls are given as the source filed them.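 The calls were made as follows: active = cytotoxic compounds whose falling curve has a midpoint dose at most twice the top valid dose; inconclusive = flat fit losing 30 to 70% signal, or poor fit; inactive = the rest.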

Turning to `Cc1cc(C)c(S(=O)(=O)NCCn2c(C)cc3ccccc32)c(C)c1`, the activity change, negative = cytotoxicity in test [1] was 18.2% (inactive). Regarding `COc1ccc(Nc2ccccc2N)cc1`, the activity change, negative = cytotoxicity in test [1] was 4.91% (inactive). For `Cc1cc2ccccc2n1CCNC(=O)COc1ccc2ccccc2c1`, the activity change, negative = cytotoxicity in test [1] is 21.7% (inactive). The same measure, in the same setting: the value for `O=C(c1c(F)cccc1F)N(Cc1ccccc1)Cc1ccccc1` was -4.81% (inactive); that for `Cc1cccc(NC(=O)NCc2ccc3c(c2)cc(C)n3C)c1` was -2.27% (inactive); that for `Cc1ccc(S(=O)(=O)NCc2ccc3c(c2)cc(C)n3C)cc1` was -22.2% (inactive). Same read-out and setting: the result for `O=C(O)C1CCN(c2nc(-c3ccccc3)c3cc(Br)ccc3n2)CC1` reads 1.7% (inactive); that for `CNc1ccccc1C(C)(C)c1cc(-c2cccc(OC)c2)no1`, -1.6% (inactive); that for `Cc1cc2cc(CNC(=O)Nc3ccc(Cl)c(Cl)c3)ccc2n1C`, -3.46% (inactive). The same measure, in the same setting: the value for `Cc1ccc(CSc2nc3[nH]ncc3c(=O)[nH]2)cc1` was -34.4% (inactive); that for `CCc1cccc2c1NC1(CCCC1)CC2C` (configuration not stated) was -13.5% (inactive). For the compound `OCc1ccc(-c2nn(Cc3ccccc3)c3ccccc23)o1`, the AC50 (commonly the concentration at which the activity in the assay is half-maximal) in test [2] was 8.07 µM.
